Reference: PubChem BioAssay AID248 (DTP/NCI, 2004)
Inconclusive results and toxic doses are left out. Cut-off read from the data, not from the text of the source: active = T/C of 150% or more; inactive = T/C below 125%.

System: L1210 leukemia ip in BDF1 mice, survival T/C
Assay: NCI In Vivo Anticancer Drug Screen. Data for tumor model L1210 Leukemia (intraperitoneal) in B6D2F1 (BDF1) mice
Details: higher = longer survival
Summary of the method: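 Antitumor effect is assessed in tumor-bearing animals. Survival in the compound arm is compared with a vehicle-dosed control arm and expressed as their quotient.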

[1] = endpoint: mean survival time, dose: 100.0 mg/kg/injection, schedule: Q01DX009 (ip), vehicle: Klucel (hydroxypropylcellulose) (HPC)
[2] = endpoint: mean survival time, dose: 100.0 mg/kg/injection, schedule: Q04DX003 (ip), vehicle: Klucel (hydroxypropylcellulose) (HPC)
[3] = endpoint: mean survival time, dose: 200.0 mg/kg/injection, schedule: Q01DX009 (ip), vehicle: Klucel (hydroxypropylcellulose) (HPC)
[4] = endpoint: mean survival time, dose: 200.0 mg/kg/injection, schedule: Q04DX003 (ip), vehicle: Klucel (hydroxypropylcellulose) (HPC)
[5] = endpoint: mean survival time, dose: 50.0 mg/kg/injection, schedule: Q01DX001 (ip), vehicle: saline
[6] = endpoint: mean survival time, dose: 100.0 mg/kg/injection, schedule: Q01DX001 (ip), vehicle: saline
[7] = endpoint: mean survival time, dose: 200.0 mg/kg/injection, schedule: Q01DX001 (ip), vehicle: saline
[8] = endpoint: mean survival time, dose: 400.0 mg/kg/injection, schedule: Q01DX001 (ip), vehicle: saline
[9] = endpoint: mean survival time, dose: 400.0 mg/kg/injection, schedule: Q01DX009 (ip), vehicle: Klucel (hydroxypropylcellulose) (HPC)
[10] = endpoint: mean survival time, dose: 400.0 mg/kg/injection, schedule: Q04DX003 (ip), vehicle: Klucel (hydroxypropylcellulose) (HPC)
[11] = endpoint: mean survival time, dose: 100.0 mg/kg/injection, schedule: Q04DX003 (ip), vehicle: other
[12] = endpoint: mean survival time, dose: 200.0 mg/kg/injection, schedule: Q04DX003 (ip), vehicle: other
[13] = endpoint: mean survival time, dose: 400.0 mg/kg/injection, schedule: Q04DX003 (ip), vehicle: other

Measured: T/C

C=CCOC(=O)Oc1ccccc1Cl
inactive: [1] 92 % of control | [2] 95 % of control | [3] 89 % of control | [4] 97 % of control

CC(C)(CNCc1ccco1)[N+](=O)[O-]
inactive: endpoint: mean survival time, dose: 50.0 mg/kg/injection, schedule: Q01DX009 (ip), vehicle: other 103 % of control | endpoint: mean survival time, dose: 100.0 mg/kg/injection, schedule: Q01DX009 (ip), vehicle: other 95 % of control | endpoint: mean survival time, dose: 200.0 mg/kg/injection, schedule: Q01DX009 (ip), vehicle: other 106 % of control

COc1cc([C@@H]2c3cc4c(c(O)c3C[C@H]3COC(=O)[C@@H]32)OCO4)cc(OC)c1OC
inactive: endpoint: mean survival time, dose: 0.06 mg/kg/injection, schedule: Q01DX Z (ip), vehicle: saline 100 % of control | endpoint: mean survival time, dose: 0.12 mg/kg/injection, schedule: Q01DX Z (ip), vehicle: saline 103 % of control | endpoint: mean survival time, dose: 0.25 mg/kg/injection, schedule: Q01DX Z (ip), vehicle: saline 113 % of control | endpoint: mean survival time, dose: 0.5 mg/kg/injection, schedule: Q01DX Z (ip), vehicle: saline 116 % of control | endpoint: mean survival time, dose: 1.0 mg/kg/injection, schedule: Q01DX Z (ip), vehicle: saline 99 % of control | endpoint: mean survival time, dose: 1.5 mg/kg/injection, schedule: Q01DX Z (ip), vehicle: saline 115 % of control | endpoint: mean survival time, dose: 2.25 mg/kg/injection, schedule: Q01DX Z (ip), vehicle: saline 108 % of control | endpoint: mean survival time, dose: 28.0 mg/kg/injection, schedule: Q01DX001 (ip), vehicle: saline 102 % of control | endpoint: mean survival time, dose: 45.0 mg/kg/injection, schedule: Q01DX001 (ip), vehicle: saline 122 % of control | [5] 101 % of control | endpoint: mean survival time, dose: 65.0 mg/kg/injection, schedule: Q01DX001 (ip), vehicle: saline 111 % of control | [6] 112 % of control | [7] 112 % of control | [8] 117 % of control | endpoint: median survival time, dose: 0.25 mg/kg/injection, schedule: Q01DX009 (ip), vehicle: Klucel (hydroxypropylcellulose) (HPC) 100 % of control | endpoint: median survival time, dose: 0.5 mg/kg/injection, schedule: Q01DX009 (ip), vehicle: Klucel (hydroxypropylcellulose) (HPC) 100 % of control | endpoint: median survival time, dose: 1.0 mg/kg/injection, schedule: Q01DX009 (ip), vehicle: Klucel (hydroxypropylcellulose) (HPC) 100 % of control | endpoint: median survival time, dose: 2.0 mg/kg/injection, schedule: Q01DX009 (ip), vehicle: Klucel (hydroxypropylcellulose) (HPC) 100 % of control

NCCSC1CCCCC1
inactive: endpoint: mean survival time, dose: 100.0 mg/kg/injection, schedule: Q04DX002 (ip), vehicle: saline 110 % of control | endpoint: mean survival time, dose: 200.0 mg/kg/injection, schedule: Q04DX002 (ip), vehicle: saline 94 % of control

C[N+](C)(CCOc1ccccc1)Cc1cccs1
inactive: [5] 109 % of control | [6] 97 % of control

COc1ccc(NC(=O)Oc2ccc(F)cc2Cl)c(OC)c1
inactive: [1] 97 % of control | [3] 95 % of control | [9] 101 % of control

Clc1ccc(OCOc2ccc(Cl)cc2)cc1
inactive: [2] 106 % of control | [4] 98 % of control | [10] 92 % of control

CC(=O)OCCC(CCOC(C)=O)=C1N=C(c2ccccc2)OC1=O
inactive: endpoint: mean survival time, dose: 100.0 mg/kg/injection, schedule: Q01DX009 (ip), vehicle: saline 97 % of control | [11] 101 % of control | endpoint: mean survival time, dose: 200.0 mg/kg/injection, schedule: Q01DX009 (ip), vehicle: saline 105 % of control | [12] 104 % of control | endpoint: mean survival time, dose: 400.0 mg/kg/injection, schedule: Q01DX009 (ip), vehicle: saline 92 % of control | [13] 101 % of control

O=C(CCCC(=O)N/N=C/c1cc(O)ccc1O)N/N=C\c1cc(O)ccc1O
inactive: [5] 102 % of control | [6] 96 % of control | [7] 90 % of control | [8] 98 % of control

COc1ccc(C2=NC(=O)C(C)(C(C)=O)O2)cc1 (stereo not given)
inactive: [6] 93 % of control | [7] 90 % of control | [8] 90 % of control

CN(C)c1nnc([N+](=O)[O-])s1
inactive: endpoint: mean survival time, dose: 62.0 mg/kg/injection, schedule: Q04DX003 (ip), vehicle: Klucel (hydroxypropylcellulose) (HPC) 93 % of control | endpoint: mean survival time, dose: 123.0 mg/kg/injection, schedule: Q04DX003 (ip), vehicle: Klucel (hydroxypropylcellulose) (HPC) 87 % of control

OCCCNc1nc2ccc(Br)cc2c2ccccc12
inactive: [1] 100 % of control | [2] 108 % of control | [3] 89 % of control | [4] 102 % of control | [9] 95 % of control | [10] 102 % of control

Nn1c(Cc2ccccc2)nnc1Cc1ccccc1
inactive: endpoint: mean survival time, dose: 100.0 mg/kg/injection, schedule: Q04DX002 (ip), vehicle: saline with Tween-80 104 % of control | endpoint: mean survival time, dose: 200.0 mg/kg/injection, schedule: Q04DX002 (ip), vehicle: saline with Tween-80 87 % of control | endpoint: mean survival time, dose: 400.0 mg/kg/injection, schedule: Q04DX002 (ip), vehicle: saline with Tween-80 108 % of control

CC(=O)[C@@]1(O)CC[C@H]2[C@@H]3C=C(C)C4=CC(=O)C=C[C@]4(C)[C@@]3(F)[C@@H](O)C[C@@]21C
inactive: endpoint: mean survival time, dose: 50.0 mg/kg/injection, schedule: Q01DX001 (sc), vehicle: steriod suspending solution 96 % of control | endpoint: mean survival time, dose: 100.0 mg/kg/injection, schedule: Q01DX001 (sc), vehicle: steriod suspending solution 102 % of control | endpoint: mean survival time, dose: 200.0 mg/kg/injection, schedule: Q01DX001 (sc), vehicle: steriod suspending solution 105 % of control | endpoint: mean survival time, dose: 400.0 mg/kg/injection, schedule: Q01DX001 (sc), vehicle: steriod suspending solution 118 % of control

S=c1nc[nH]c2c1N=CNN2
inactive: endpoint: mean survival time, dose: 5.0 mg/kg/injection, schedule: Q01DX001 (ip), vehicle: carboxymethylcellulose (CMC) 115 % of control | endpoint: mean survival time, dose: 10.0 mg/kg/injection, schedule: Q01DX001 (ip), vehicle: carboxymethylcellulose (CMC) 90 % of control | endpoint: mean survival time, dose: 20.0 mg/kg/injection, schedule: Q01DX001 (ip), vehicle: carboxymethylcellulose (CMC) 101 % of control | endpoint: mean survival time, dose: 40.0 mg/kg/injection, schedule: Q01DX001 (ip), vehicle: carboxymethylcellulose (CMC) 96 % of control

Cc1nnc(NC(=O)C(Cl)(Cl)Cl)s1
inactive: endpoint: mean survival time, dose: 100.0 mg/kg/injection, schedule: Q01DX001 (ip), vehicle: other 94 % of control | [11] 96 % of control | endpoint: mean survival time, dose: 200.0 mg/kg/injection, schedule: Q01DX001 (ip), vehicle: other 105 % of control | [12] 109 % of control | endpoint: mean survival time, dose: 400.0 mg/kg/injection, schedule: Q01DX001 (ip), vehicle: other 104 % of control | [13] 96 % of control

CC(=O)Nc1cccc(OC(=O)Nc2ccc(F)c(Cl)c2)c1
inactive: endpoint: mean survival time, dose: 100.0 mg/kg/injection, schedule: Q04DX002 (ip), vehicle: Klucel (hydroxypropylcellulose) (HPC) 96 % of control | endpoint: mean survival time, dose: 200.0 mg/kg/injection, schedule: Q04DX002 (ip), vehicle: Klucel (hydroxypropylcellulose) (HPC) 89 % of control | endpoint: mean survival time, dose: 400.0 mg/kg/injection, schedule: Q04DX002 (ip), vehicle: Klucel (hydroxypropylcellulose) (HPC) 121 % of control

O=C(O)c1cccnc1
inactive: endpoint: mean survival time, dose: 25.0 mg/kg/injection, schedule: Q01DX009 (ip), vehicle: Klucel (hydroxypropylcellulose) (HPC) 103 % of control | endpoint: mean survival time, dose: 25.0 mg/kg/injection, schedule: Q04DX003 (ip), vehicle: Klucel (hydroxypropylcellulose) (HPC) 91 % of control | endpoint: mean survival time, dose: 50.0 mg/kg/injection, schedule: Q01DX009 (ip), vehicle: Klucel (hydroxypropylcellulose) (HPC) 100 % of control | endpoint: mean survival time, dose: 50.0 mg/kg/injection, schedule: Q04DX003 (ip), vehicle: Klucel (hydroxypropylcellulose) (HPC) 89 % of control | [1] 96 % of control | [2] 100 % of control | [3] 95 % of control | [4] 91 % of control | [10] 107 % of control
